Biological target: ClpP Enzyme
Format: biochemical
Conditions: pH 8

## O=[N+]([O-])C(=C1Nc2ccccc2N1)C(Cl)=C(Cl)Cl [(I)]
  IC50: 23 µM

## Clc1nc2ccccc2nc1N1CC1 [(II)]
  IC50: 19 µM

## COc1ccc(/C=C(\C#N)c2nnc(/N=C/N(C)C)s2)cc1 [(III)]
  IC50: 25 µM
